Data reported in PubChem BioAssay (NCI).
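Where inhibition never reached the appropriate level, the endpoint shown equals the highest concentration tested. Otherwise, values were interpolated linearly from a five-concentration, 48-hour dose response in 96-well plates. The concentration for 50% growth inhibition is given as GI50. TGI denotes the concentration required for complete inhibition of growth.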

What was measured:
Test in all cases: inhibition of tumour cell growth, NCI panel, 48 h
OVCAR-8 ovarian = tested on: OVCAR-8 ovarian
IGROV1 ovarian = tested on: IGROV1 ovarian
TK-10 renal = tested on: TK-10 renal
HL-60(TB) leukemia = tested on: HL-60(TB) leukemia
U251 CNS = tested on: U251 CNS
OVCAR-5 ovarian = tested on: OVCAR-5 ovarian
786-0 renal = tested on: 786-0 renal
HCC-2998 colon = tested on: HCC-2998 colon
SNB-19 CNS = tested on: SNB-19 CNS
SN12C renal = tested on: SN12C renal
SW-620 colon = tested on: SW-620 colon
UACC-62 melanoma = tested on: UACC-62 melanoma
SK-MEL-28 melanoma = tested on: SK-MEL-28 melanoma
PC-3 prostate = tested on: PC-3 prostate
LOX IMVI melanoma = tested on: LOX IMVI melanoma
NCI/ADR-RES ovarian = tested on: NCI/ADR-RES ovarian
CCRF-CEM leukemia = tested on: CCRF-CEM leukemia
K-562 leukemia = tested on: K-562 leukemia
A549 NSCLC = tested on: A549 NSCLC
CAKI-1 renal = tested on: CAKI-1 renal
M14 melanoma = tested on: M14 melanoma
ACHN renal = tested on: ACHN renal
SNB-75 CNS = tested on: SNB-75 CNS
HT29 colon = tested on: HT29 colon
KM12 colon = tested on: KM12 colon
SF-295 CNS = tested on: SF-295 CNS
HOP-62 NSCLC = tested on: HOP-62 NSCLC
HCT-116 colon = tested on: HCT-116 colon
SK-MEL-5 melanoma = tested on: SK-MEL-5 melanoma
NCI-H226 lung = tested on: NCI-H226 lung
NCI-H460 lung = tested on: NCI-H460 lung
SK-OV-3 ovarian = tested on: SK-OV-3 ovarian
DU-145 prostate = tested on: DU-145 prostate
MDA-MB-435 = tested on: MDA-MB-435
RPMI-8226 leukemia = tested on: RPMI-8226 leukemia
COLO 205 colon = tested on: COLO 205 colon
MCF7 breast = tested on: MCF7 breast
OVCAR-4 ovarian = tested on: OVCAR-4 ovarian
RXF 393 renal = tested on: RXF 393 renal
MDA-MB-231 breast = tested on: MDA-MB-231 breast
OVCAR-3 ovarian = tested on: OVCAR-3 ovarian
UACC-257 melanoma = tested on: UACC-257 melanoma
SF-268 CNS = tested on: SF-268 CNS
BT-549 breast = tested on: BT-549 breast
UO-31 renal = tested on: UO-31 renal
NCI-H522 lung = tested on: NCI-H522 lung
A498 renal = tested on: A498 renal
T-47D breast = tested on: T-47D breast
SF-539 CNS = tested on: SF-539 CNS
EKVX NSCLC = tested on: EKVX NSCLC
MOLT-4 leukemia = tested on: MOLT-4 leukemia
HCT-15 colon = tested on: HCT-15 colon
SK-MEL-2 melanoma = tested on: SK-MEL-2 melanoma
HS 578T breast = tested on: HS 578T breast
MALME-3M melanoma = tested on: MALME-3M melanoma
NCI-H23 lung = tested on: NCI-H23 lung
HOP-92 NSCLC = tested on: HOP-92 NSCLC

N#Cc1cc2c(cc1Cl)SC(=Nc1ccccc1)N(S(=O)(=O)c1ccc(Cl)cc1)S2(=O)=O
GI50 (OVCAR-8 ovarian): 18 µM
TGI (OVCAR-8 ovarian): 51 µM
GI50 (IGROV1 ovarian): 5.56 µM
TGI (IGROV1 ovarian): 21.2 µM
GI50 (TK-10 renal): 0.656 µM
TGI (TK-10 renal): 3.64 µM
GI50 (HL-60(TB) leukemia): > 100 µM
TGI (HL-60(TB) leukemia): > 100 µM
GI50 (U251 CNS): 17.7 µM
TGI (U251 CNS): 36.6 µM
GI50 (OVCAR-5 ovarian): 16.8 µM
TGI (OVCAR-5 ovarian): 32.9 µM
GI50 (786-0 renal): 14.2 µM
TGI (786-0 renal): 28.6 µM
GI50 (HCC-2998 colon): 17.8 µM
TGI (HCC-2998 colon): 33 µM
GI50 (SNB-19 CNS): 35.5 µM
TGI (SNB-19 CNS): > 100 µM
GI50 (SN12C renal): 17.2 µM
TGI (SN12C renal): 37.1 µM
GI50 (SW-620 colon): 17.4 µM
TGI (SW-620 colon): 39.5 µM
GI50 (UACC-62 melanoma): 14.7 µM
TGI (UACC-62 melanoma): 29 µM
GI50 (SK-MEL-28 melanoma): 17.1 µM
TGI (SK-MEL-28 melanoma): 37.7 µM
GI50 (PC-3 prostate): 17.5 µM
TGI (PC-3 prostate): 38.2 µM
GI50 (LOX IMVI melanoma): 10.8 µM
TGI (LOX IMVI melanoma): 28.8 µM
GI50 (NCI/ADR-RES ovarian): 18 µM
TGI (NCI/ADR-RES ovarian): 44.6 µM
GI50 (CCRF-CEM leukemia): 20.6 µM
TGI (CCRF-CEM leukemia): 39.1 µM
GI50 (K-562 leukemia): 50.5 µM
TGI (K-562 leukemia): > 100 µM
GI50 (A549 NSCLC): 20.3 µM
TGI (A549 NSCLC): 54.5 µM
GI50 (CAKI-1 renal): 12.3 µM
TGI (CAKI-1 renal): 27.2 µM
GI50 (M14 melanoma): 10 µM
TGI (M14 melanoma): 24.8 µM
GI50 (ACHN renal): 17.7 µM
TGI (ACHN renal): 33.2 µM
GI50 (SNB-75 CNS): 18.9 µM
TGI (SNB-75 CNS): 42.2 µM
GI50 (HT29 colon): 31 µM
TGI (HT29 colon): > 100 µM
GI50 (KM12 colon): 14 µM
TGI (KM12 colon): 28.1 µM
GI50 (SF-295 CNS): 22.5 µM
TGI (SF-295 CNS): 72.7 µM
GI50 (HOP-62 NSCLC): 13.5 µM
TGI (HOP-62 NSCLC): 29.9 µM
GI50 (HCT-116 colon): 3.78 µM
TGI (HCT-116 colon): 18 µM
GI50 (SK-MEL-5 melanoma): 13.4 µM
TGI (SK-MEL-5 melanoma): 28.7 µM
GI50 (NCI-H226 lung): 17.7 µM
TGI (NCI-H226 lung): 42.9 µM
GI50 (NCI-H460 lung): 20.8 µM
TGI (NCI-H460 lung): 53.5 µM
GI50 (SK-OV-3 ovarian): 20 µM
TGI (SK-OV-3 ovarian): 40.8 µM
GI50 (DU-145 prostate): 16.6 µM
TGI (DU-145 prostate): 35.7 µM
GI50 (MDA-MB-435): 13 µM
TGI (MDA-MB-435): 27.8 µM
GI50 (RPMI-8226 leukemia): 10.6 µM
TGI (RPMI-8226 leukemia): 51.7 µM
GI50 (COLO 205 colon): 32 µM
TGI (COLO 205 colon): > 100 µM
GI50 (MCF7 breast): 14.8 µM
TGI (MCF7 breast): 37.6 µM
GI50 (OVCAR-4 ovarian): 19 µM
TGI (OVCAR-4 ovarian): 42.2 µM
GI50 (RXF 393 renal): 5.68 µM
TGI (RXF 393 renal): 30.1 µM
GI50 (MDA-MB-231 breast): 14.5 µM
TGI (MDA-MB-231 breast): 34.5 µM
GI50 (OVCAR-3 ovarian): 4.95 µM
TGI (OVCAR-3 ovarian): 17.9 µM
GI50 (UACC-257 melanoma): 18.6 µM
TGI (UACC-257 melanoma): 40.4 µM
GI50 (SF-268 CNS): 16.9 µM
TGI (SF-268 CNS): 41.6 µM
GI50 (BT-549 breast): 13.4 µM
TGI (BT-549 breast): 30.4 µM
GI50 (UO-31 renal): 9.84 µM
TGI (UO-31 renal): 26.9 µM
GI50 (NCI-H522 lung): 3.29 µM
TGI (NCI-H522 lung): 17.3 µM
GI50 (A498 renal): 16.4 µM
TGI (A498 renal): 32.8 µM
GI50 (T-47D breast): 19.9 µM
TGI (T-47D breast): 64.1 µM
GI50 (SF-539 CNS): 19.8 µM
TGI (SF-539 CNS): 39.8 µM
GI50 (EKVX NSCLC): 16.9 µM
TGI (EKVX NSCLC): 34.4 µM
GI50 (MOLT-4 leukemia): 28.7 µM
TGI (MOLT-4 leukemia): > 100 µM
GI50 (HCT-15 colon): 15.2 µM
TGI (HCT-15 colon): 33.6 µM
GI50 (SK-MEL-2 melanoma): 3.61 µM
TGI (SK-MEL-2 melanoma): 16.8 µM
GI50 (HS 578T breast): 21.6 µM
TGI (HS 578T breast): 57.8 µM

CCCCC(CCCC)=NNC(=S)SC
TGI (OVCAR-8 ovarian): 44.4 µM
TGI (TK-10 renal): 69.1 µM
TGI (HL-60(TB) leukemia): 50.2 µM
TGI (U251 CNS): > 100 µM
TGI (OVCAR-5 ovarian): > 100 µM
TGI (786-0 renal): > 100 µM
TGI (HCC-2998 colon): 54.4 µM
TGI (SNB-19 CNS): > 100 µM
TGI (SN12C renal): > 100 µM
TGI (SW-620 colon): > 100 µM
TGI (UACC-62 melanoma): 57.8 µM
TGI (SK-MEL-28 melanoma): > 100 µM
TGI (PC-3 prostate): > 100 µM
TGI (LOX IMVI melanoma): > 100 µM
TGI (NCI/ADR-RES ovarian): > 100 µM
TGI (K-562 leukemia): > 100 µM
TGI (A549 NSCLC): > 100 µM
TGI (M14 melanoma): 44.3 µM
TGI (ACHN renal): > 100 µM
TGI (SNB-75 CNS): > 100 µM
TGI (HT29 colon): > 100 µM
TGI (HOP-62 NSCLC): > 100 µM
TGI (HCT-116 colon): 38.6 µM
TGI (SK-MEL-5 melanoma): 39.3 µM
TGI (NCI-H226 lung): 57.6 µM
TGI (NCI-H460 lung): > 100 µM
TGI (SK-OV-3 ovarian): > 100 µM
TGI (DU-145 prostate): > 100 µM
TGI (MDA-MB-435): 47 µM
TGI (COLO 205 colon): > 100 µM
TGI (MCF7 breast): > 100 µM
TGI (OVCAR-4 ovarian): 66.3 µM
TGI (RXF 393 renal): > 100 µM
TGI (MDA-MB-231 breast): > 100 µM
TGI (UACC-257 melanoma): 75.7 µM
TGI (SF-268 CNS): > 100 µM
TGI (BT-549 breast): > 100 µM
TGI (UO-31 renal): > 100 µM
TGI (NCI-H522 lung): 48.8 µM
TGI (A498 renal): > 100 µM
TGI (T-47D breast): 74.1 µM
TGI (SF-539 CNS): 67 µM
TGI (EKVX NSCLC): > 100 µM
TGI (MALME-3M melanoma): 37.4 µM
TGI (MOLT-4 leukemia): 43.6 µM
TGI (NCI-H23 lung): > 100 µM
TGI (HCT-15 colon): > 100 µM
TGI (SK-MEL-2 melanoma): > 100 µM
TGI (HS 578T breast): > 100 µM
TGI (HOP-92 NSCLC): > 100 µM
